Reference: patent US11261186B2, “Biaryl derivative as GPR120 agonist” (LG CHEM, LTD., priority 2014, dated 2022)

Target: T1, hGPR120 (Homo sapiens, UniProt Q5NUL3)
T1 construct: expressed in transfected cells; host or cells: CHO-K1
T1 sequence (Q5NUL3 1-361): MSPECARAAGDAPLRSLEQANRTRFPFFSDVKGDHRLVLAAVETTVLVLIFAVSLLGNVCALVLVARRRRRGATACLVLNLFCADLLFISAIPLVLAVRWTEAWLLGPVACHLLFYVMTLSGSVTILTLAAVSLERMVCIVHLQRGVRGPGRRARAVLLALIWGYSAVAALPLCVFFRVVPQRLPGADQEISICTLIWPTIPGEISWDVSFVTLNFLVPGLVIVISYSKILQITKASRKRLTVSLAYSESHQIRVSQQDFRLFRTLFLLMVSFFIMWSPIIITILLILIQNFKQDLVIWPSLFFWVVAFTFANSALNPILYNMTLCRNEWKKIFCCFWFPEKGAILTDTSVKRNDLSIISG
Experiment: Measurement of Activity of GPR120 Agonist (Cell-Based Assay), Calcium 5 dye fluorescence
Details: CHO-K1 cells expressing Ga16 and hGPR120
Procedure, shortened: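 Agonist-evoked calcium signal, expressed as percent relative to DMSO-only wells, read at 485/525 nm after serial-dilution addition (0.5% DMSO final). Cells were hGPR120/Gα16 CHO-K1, seeded 18 h earlier and dye-loaded for 1 h at 37°C.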

SMILES	EC50 [nM]
O=C(O)CCc1ccc2cc(-c3cccc(SC4CCCC4)n3)ccc2c1 [Example 143, 3-[6-(6-cyclopentylsulfanyl-pyridin-2-yl)-naphthalen-2-yl]-propanoic acid]	2000 to 20000
Cc1nc(COCC2CC2)c(-c2cc(F)c(OCCCC(=O)O)c(F)c2)s1 [Example 568, 4-[4-(4-cyclopropylmethoxymethyl-2-methyl-thiazol-5-yl)-2,6-difluoro-phenoxy]-butanoic acid]	2000 to 20000
O=C(O)CC1CCN(c2c(F)cc(-c3cccc4c3OC3(CCCC3)O4)cc2F)CC1 [Example 453, 2-[1-(2,6-difluoro-4-spiro[1,3-benzodioxol-2,1′-cyclopentan]-4-yl-phenyl)-4-piperidyl]acetic acid]	200 to 2000
O=C(O)CCCOc1c(F)cc(-c2cccc(OCc3ccccc3)c2)cc1F [Example 17, 4-(3′-benzyloxy-3,5-difluoro-biphenyl-4-yloxy)-butyric acid]	2000 to 20000
Cc1ncc(-c2cc(F)c(N3CCC(CC(=O)O)CC3)c(F)c2)nc1OC1CCC1 [Example 361, 2-[1-[4-[6-(cyclobutoxy)-5-methyl-pyrazin-2-yl]-2,6-difluoro-phenyl]-4-piperidyl]acetic acid]	200 to 2000
CN1c2ccc(-c3cccc(OC4CCCC4)n3)cc2CCC1CCC(=O)O (stereo not shown) [Example 12, 3-[6-(6-cyclopentyloxy-pyridin-2-yl)-1-methyl-1,2,3,4-tetrahydro-quinolin-2-yl]-propionic acid]	200 to 2000
CC(C)CNc1ccnc(-c2cc(F)c(N3CCC(CC(=O)O)CC3)c(F)c2)n1 [Example 360, 2-[1-[2,6-difluoro-4-[4-(isobutylamino)pyrimidin-2-yl]phenyl]-4-piperidyl]acetic acid]	200 to 2000
O=C(O)CCCOc1c(F)cc(-c2cccc(OC3CCC3)c2)cc1F [Example 21, 4-(3′-cyclobutoxy-3,5-difluoro-biphenyl-4-yloxy)-butyric acid]	< 200
O=C(O)CC1CCN(c2c(F)cc(-c3cc(C(F)(F)F)cc(OC4CCC4)n3)cc2F)CC1 [Example 614, {1-[4-(6-cyclobutoxy-4-trifluoromethyl-pyridin-2-yl)-2,6-difluoro-phenyl]-piperidin-4-yl}-acetic acid]	2000 to 20000
O=C(O)CC1CCN(c2ccc(-c3cccc(OC4CCC4)n3)cc2F)CC1 [Example 320, 2-[1-[4-[6-(cyclobutoxy)-2-pyridyl]-2-fluoro-phenyl]-4-piperidyl]acetic acid]	200 to 2000
CC(C)Sc1ncccc1-c1cc(F)c(N2CCC3(CC2)CC3C(=O)O)c(F)c1 (stereo not shown) [Example 110, 6-[2,6-difluoro-4-(2-isopropylsulfanyl-3-pyridyl)phenyl]-6-azaspiro[2.5]octan-2-carboxylic acid]	200 to 2000
O=C(O)C1CC1COc1c(F)cc(-c2cccc(OC3CCC3)n2)cc1Cl (stereo not shown) [Example 554, 2-[2-chloro-4-(6-cyclobutoxy-pyridin-2-yl)-6-fluoro-phenoxymethyl]-cyclopropanecarboxylic acid]	< 200
O=C(O)CCCn1ccc2cc(-c3cccnc3SC3CCCC3)ccc21 [Example 200, 4-[5-(2-cyclopentylsulfanyl-pyridin-3-yl)-indol-1-yl]-butyric acid]	200 to 2000
CN(Cc1cc(O)no1)c1ccc(-c2cccc(OC3CCC3)n2)cc1 [Example 417, 5-({[4-(6-cyclobutoxy-pyridin-2-yl)-phenyl]-methyl-amino}-methyl)-isoxazol-3-ol]	< 200
O=C(O)CCCOc1c(F)cc(-c2nccc(OC3CCC3)n2)cc1Cl [Example 422, 4-[2-chloro-4-(4-cyclobutoxy-pyrimidin-2-yl)-6-fluoro-phenoxy]-butyric acid]	< 200
O=C(O)CCc1ccc2cc(-c3cccc(Oc4ccccc4F)n3)ccc2c1 [Example 152, 3-{6-[6-(2-fluoro-phenoxy)-pyridin-2-yl]-naphthalen-2-yl}-propanoic acid]	200 to 2000
CC(C)COc1nc(-c2cc(F)c(N3CCC(CC(=O)O)CC3)c(F)c2)ncc1F [Example 597, {1-[2,6-difluoro-4-(5-fluoro-4-isobutoxy-pyrimidin-2-yl)-phenyl]-piperidin-4-yl}-acetic acid]	200 to 2000
COCCCOc1cccc(-c2cc(F)c(N3CCC(CC(=O)O)C3)c(F)c2)n1 (stereo not shown) [Example 595, (1-{2,6-difluoro-4-[6-(3-methoxy-propoxy)-pyridin-2-yl]-phenyl}-pyrrolidin-3-yl)-acetic acid]	200 to 2000
O=C(O)CCC1CC1c1c(F)cc(-c2cccnc2OCC2CCC2)cc1F (stereo not shown) [Example 189, 3-{2-[4-(2-cyclobutylmethoxy-pyridin-3-yl)-2,6-difluoro-phenyl]-cyclopropyl}-propanoic acid]	< 200
O=C(O)CCCSc1ccc(-c2cccc3c2OC2(CCCC2)O3)cc1F [Example 157, 4-(2-fluoro-4-spiro[1,3-benzodioxol-2,1′-cyclopentan]-4-yl-phenyl)sulfanylbutanoic acid]	< 200

Results, then the compound that gave them:

EC50 [nM]	SMILES
< 200	O=C(O)CC1CCN(c2c(F)cc(-c3cncc(OCC4CC4)n3)cc2F)C1 (stereo not shown) [Example 580, {1-[4-(6-cyclopropylmethoxy-pyrazin-2-yl)-2,6-difluoro-phenyl]-pyrrolidin-3-yl}-acetic acid]
< 200	O=C(O)CCCSc1ccc(-c2cccnc2OCC2CC2)cc1F [Example 239, 4-[4-(2-cyclopropylmethoxy-pyridin-3-yl)-2-fluoro-phenylsulfanyl]-butyric acid]
< 200	CN(CCCC(=O)O)c1c(F)cc(-c2cccnc2SC2CCC2)cc1F [Example 195, 4-{[4-(2-cyclobutylsulfanyl-pyridin-3-yl)-2,6-difluoro-phenyl]-methyl-amino}-butyric acid]
< 200	CC(CCCCC(=O)O)c1c(F)cc(-c2cccnc2SC2CCCC2)cc1F (stereo not shown) [Example 238, 6-[4-(2-cyclopentylsulfanyl-pyridin-3-yl)-2,6-difluoro-phenyl]-heptanoic acid]
< 200	CC1(C)Oc2cccc(-c3cc(F)c(OCCCC(=O)O)c(F)c3)c2O1 [Example 23, 4-[4-(2,2-dimethyl-benzo[1,3]dioxol-4-yl)-2,6-difluoro-phenoxy]-butyric acid]
< 200	O=C(O)CCCOc1c(F)cc(-n2ccc3ccc(Cl)cc32)cc1F [Example 463, 4-[4-(6-chloroindol-1-yl)-2,6-difluoro-phenoxy]butanoic acid]
< 200	O=C(O)CCC1CCc2cc(-c3cccnc3OC3CCCC3)ccc2O1 (stereo not shown) [Example 10, 3-[6-(2-cyclopentyloxy-pyridin-3-yl)-chroman-2-yl]-propionic acid]
< 200	CCCOc1cccc(-c2cc(F)c(N3CCC(CC(=O)O)CC3)c(F)c2)n1 [Example 295, 2-[1-[2,6-difluoro-4-(6-propoxy-2-pyridyl)phenyl]-4-piperidyl]acetic acid]
< 200	CCCOc1cccc(-c2cc(F)c(OCc3cc(O)no3)c(F)c2)n1 [Example 73, 5-[[2,6-difluoro-4-(6-propoxy-2-pyridyl)phenoxy]methyl]isoxazol-3-ol]
< 200	O=C(O)CCCCc1ccc(-c2cccc(SC3CCCC3)n2)cc1 [Example 28, 5-[4-(6-cyclopentylsulfanyl-2-pyridyl)phenyl]pentanoic acid]
< 200	CC(C)Oc1cccc(-c2ccc3c(c2)CCC(CCC(=O)O)O3)n1 (stereo not shown) [Example 452, 3-[6-(6-isopropoxy-2-pyridyl)chroman-2-yl]propanoic acid]
